In brackets after ≈: the same amount, converted by molar mass. Activity calls are given as the source filed them. The calls are words filed in the database; no cut-off is given here.
How the values were obtained:
[1] = Thermodynamic solubility of the compound in FaSSGF; assay type: physicochemical; conditions: read-out: Therm_solubility
Mus musculus = experiment: In vivo PI3K degradation in human HCC1954 cells xenografted in mouse at 50 mg/kg, po; assay type: functional, organism-based
NaV1.5 = NaV1.5 (Homo sapiens, UniProt Q14524); experiment: Inhibition of human NaV1.5 at 10 uM relative to control
HCC1954 [2] = experiment: Antitumor activity against human HCC1954 cells xenografted in mouse assessed as tumor growth inhibition at 50 mg/kg, po QD; assay type: functional; conditions: read-out: TGI
[3] = Thermodynamic aqueous solubility of the compound at pH 7.4; assay type: physicochemical; conditions: read-out: Therm_solubility
[4] = Oral bioavailability in NCR nude mouse at 5 mg/kg measured upto 8 hrs by LC-MS/MS analysis; assay type: ADME, organism-based; conditions: in vivo
CaV1.2 = CaV1.2 (Homo sapiens, UniProt Q13936); experiment: Inhibition of human CaV1.2 at 10 uM relative to control
[5] = Inhibition of PI3KC2b (unknown origin); parameters: species or system Homo sapiens
[6] = AUC in NCR nude mouse at 5 mg/kg, po measured upto 8 hrs by LC-MS/MS analysis; assay type: ADME, organism-based; parameters: time < 8 hrs, dose 5 mg/kg, route po; conditions: in vivo
[7] = Plasma protein binding in rat assessed as unbound fraction at 5 uM incubated for 4 hrs by equllibrium dialysis method; assay type: ADME, cell-free
[8] = Thermodynamic aqueous solubility of the compound at pH 2; assay type: physicochemical; conditions: read-out: Therm_solubility
HCC1954 [9] = experiment: Antitumor activity against human HCC1954 cells xenografted in mouse assessed as tumor growth inhibition at 25 mg/kg, po QD; assay type: functional; conditions: read-out: TGI
[10] = Plasma protein binding in human assessed as unbound fraction at 5 uM incubated for 4 hrs by equllibrium dialysis method; assay type: ADME, cell-free
HCC1954 [11] = experiment: Antitumor activity against human HCC1954 cells xenografted in mouse assessed as increase in cleaved PARP level at 50 mg/kg, po; assay type: functional, organism-based
hERG (KCNH2) = hERG (KCNH2) (Homo sapiens, UniProt Q12809); experiment: Inhibition of human ERG at 10 uM relative to control; assay type: toxicity
MCF7 = experiment: Antiproliferative activity against human MCF7 cells assessed as reduction in cell viability incubated for 4 days by Celltiter-Glo luminescence assay; assay type: functional, cell-based; conditions: MCF7, 96 h
[12] = Lipophilicity, logD of compound in 1-Octanol/PBS at pH 7.4 by LC-MS/MS method; assay type: physicochemical
[13] = molecular target: Phosphatidylinositol 4,5-bisphosphate 3-kinase catalytic subunit alpha isoform (Homo sapiens, UniProt P42336, H1047R)
[14] = Oral bioavailability in Sprague-Dawley rat plasma at 5 mg/kg measured upto 8 hrs by LC-MS/MS method; assay type: ADME, organism-based
Cytochrome P450 2D6 = Cytochrome P450 2D6 (Homo sapiens, UniProt P10635); experiment: Inhibition of CYP2D6 (unknown origin); assay type: ADME
[15] = Clearance in Sprague-Dawley rat plasma at 1 mg/kg, iv measured upto 8 hrs by LC-MS/MS analysis; assay type: ADME, organism-based
[16] = Plasma protein binding in mouse assessed as unbound fraction at 5 uM incubated for 4 hrs by equllibrium dialysis method; assay type: ADME, cell-free
Cytochrome P450 1A2 = molecular target: T1, Cytochrome P450 1A2 (Homo sapiens, UniProt P05177); experiment: Inhibition of CYP1A2 (unknown origin); assay type: ADME
T1 sequence (P05177 whole entry): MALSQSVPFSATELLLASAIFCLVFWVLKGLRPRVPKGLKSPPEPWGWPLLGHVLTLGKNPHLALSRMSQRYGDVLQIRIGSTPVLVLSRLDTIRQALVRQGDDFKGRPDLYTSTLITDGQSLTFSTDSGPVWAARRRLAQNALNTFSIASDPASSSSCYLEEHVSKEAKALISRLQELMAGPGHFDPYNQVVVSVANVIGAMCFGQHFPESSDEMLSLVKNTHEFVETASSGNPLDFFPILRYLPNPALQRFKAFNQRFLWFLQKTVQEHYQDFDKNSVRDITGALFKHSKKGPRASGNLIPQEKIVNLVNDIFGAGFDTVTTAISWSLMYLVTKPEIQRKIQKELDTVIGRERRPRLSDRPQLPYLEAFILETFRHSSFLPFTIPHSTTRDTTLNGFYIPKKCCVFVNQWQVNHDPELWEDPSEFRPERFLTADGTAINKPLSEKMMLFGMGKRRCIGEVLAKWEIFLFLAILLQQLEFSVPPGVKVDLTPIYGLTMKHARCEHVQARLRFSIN

[17] = Clearance in SCID-Beige mouse plasma at 1 mg/kg, iv measured upto 24 hrs by LC-MS/MS analysis; assay type: ADME, organism-based
Cytochrome P450 2C19 = Cytochrome P450 2C19 (Homo sapiens, UniProt P33261); experiment: Inhibition of CYP2C19 (unknown origin); assay type: ADME
[18] = molecular target: T2, Phosphatidylinositol 4,5-bisphosphate 3-kinase catalytic subunit delta isoform (Homo sapiens) (UniProt O00329); experiment: Inhibition of PI3Kdelta in human B-cells assessed as reduction in CD69 expression preincubated for 1 hr followed by IgM stimulation for 18 hrs by flow cytometry analysis; assay type: cell-based; conditions: B-cell
T2 sequence (whole entry): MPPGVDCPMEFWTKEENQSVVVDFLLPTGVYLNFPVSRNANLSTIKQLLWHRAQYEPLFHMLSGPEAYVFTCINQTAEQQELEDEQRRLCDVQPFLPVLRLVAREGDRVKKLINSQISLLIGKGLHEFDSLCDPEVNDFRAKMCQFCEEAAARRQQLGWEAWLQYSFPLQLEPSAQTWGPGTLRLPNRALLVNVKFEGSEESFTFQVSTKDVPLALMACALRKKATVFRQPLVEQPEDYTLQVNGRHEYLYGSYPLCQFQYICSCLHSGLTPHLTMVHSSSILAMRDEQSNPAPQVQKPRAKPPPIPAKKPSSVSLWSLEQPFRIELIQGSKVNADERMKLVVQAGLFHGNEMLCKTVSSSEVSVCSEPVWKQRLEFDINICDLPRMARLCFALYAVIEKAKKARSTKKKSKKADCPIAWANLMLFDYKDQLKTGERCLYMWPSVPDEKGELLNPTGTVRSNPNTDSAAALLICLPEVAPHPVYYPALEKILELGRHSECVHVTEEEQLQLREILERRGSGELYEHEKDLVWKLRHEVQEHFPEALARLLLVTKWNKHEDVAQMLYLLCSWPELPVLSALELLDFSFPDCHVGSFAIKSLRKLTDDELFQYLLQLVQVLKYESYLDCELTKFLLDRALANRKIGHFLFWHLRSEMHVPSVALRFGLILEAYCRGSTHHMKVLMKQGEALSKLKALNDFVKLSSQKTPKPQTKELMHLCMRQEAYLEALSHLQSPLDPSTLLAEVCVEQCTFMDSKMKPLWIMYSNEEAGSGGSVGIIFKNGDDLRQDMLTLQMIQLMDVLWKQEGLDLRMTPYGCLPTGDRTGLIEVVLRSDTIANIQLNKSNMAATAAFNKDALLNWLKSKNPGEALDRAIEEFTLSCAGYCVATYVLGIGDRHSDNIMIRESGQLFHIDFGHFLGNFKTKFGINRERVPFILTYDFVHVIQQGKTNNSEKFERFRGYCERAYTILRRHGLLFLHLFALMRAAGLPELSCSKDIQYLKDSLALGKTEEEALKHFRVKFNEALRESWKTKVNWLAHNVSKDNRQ

Sequence of hERG (KCNH2) (Q12809 whole entry): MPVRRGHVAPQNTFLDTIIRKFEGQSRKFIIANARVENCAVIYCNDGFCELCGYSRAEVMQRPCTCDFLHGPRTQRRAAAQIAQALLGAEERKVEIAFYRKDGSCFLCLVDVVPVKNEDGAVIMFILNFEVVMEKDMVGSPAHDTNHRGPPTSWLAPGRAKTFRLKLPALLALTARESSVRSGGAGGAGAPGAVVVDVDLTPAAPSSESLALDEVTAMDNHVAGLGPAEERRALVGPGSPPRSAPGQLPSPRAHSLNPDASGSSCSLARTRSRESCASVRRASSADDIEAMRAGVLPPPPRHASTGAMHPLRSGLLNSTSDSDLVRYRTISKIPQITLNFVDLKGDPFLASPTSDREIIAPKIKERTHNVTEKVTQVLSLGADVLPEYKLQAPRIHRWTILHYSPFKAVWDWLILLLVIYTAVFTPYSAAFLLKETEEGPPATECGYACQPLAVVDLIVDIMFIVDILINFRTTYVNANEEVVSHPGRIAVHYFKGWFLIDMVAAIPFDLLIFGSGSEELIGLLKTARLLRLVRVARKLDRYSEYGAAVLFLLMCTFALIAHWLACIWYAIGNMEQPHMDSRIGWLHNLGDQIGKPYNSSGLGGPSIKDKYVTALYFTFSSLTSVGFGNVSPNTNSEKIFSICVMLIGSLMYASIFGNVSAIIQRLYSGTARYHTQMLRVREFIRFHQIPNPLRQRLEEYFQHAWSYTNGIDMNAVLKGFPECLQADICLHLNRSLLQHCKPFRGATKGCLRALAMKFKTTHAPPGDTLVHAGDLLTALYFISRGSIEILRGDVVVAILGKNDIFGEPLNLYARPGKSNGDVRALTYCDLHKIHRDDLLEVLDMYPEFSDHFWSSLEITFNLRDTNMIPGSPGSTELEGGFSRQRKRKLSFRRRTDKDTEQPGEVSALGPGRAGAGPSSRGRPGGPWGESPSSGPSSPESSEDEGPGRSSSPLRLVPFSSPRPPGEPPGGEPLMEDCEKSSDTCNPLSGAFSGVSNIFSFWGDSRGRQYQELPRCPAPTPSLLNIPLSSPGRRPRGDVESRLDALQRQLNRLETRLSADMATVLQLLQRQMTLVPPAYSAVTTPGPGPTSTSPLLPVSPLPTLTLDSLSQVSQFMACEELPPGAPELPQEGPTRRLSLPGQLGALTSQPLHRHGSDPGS
Sequence of Cytochrome P450 2C19 (P33261 whole entry, canonical isoform): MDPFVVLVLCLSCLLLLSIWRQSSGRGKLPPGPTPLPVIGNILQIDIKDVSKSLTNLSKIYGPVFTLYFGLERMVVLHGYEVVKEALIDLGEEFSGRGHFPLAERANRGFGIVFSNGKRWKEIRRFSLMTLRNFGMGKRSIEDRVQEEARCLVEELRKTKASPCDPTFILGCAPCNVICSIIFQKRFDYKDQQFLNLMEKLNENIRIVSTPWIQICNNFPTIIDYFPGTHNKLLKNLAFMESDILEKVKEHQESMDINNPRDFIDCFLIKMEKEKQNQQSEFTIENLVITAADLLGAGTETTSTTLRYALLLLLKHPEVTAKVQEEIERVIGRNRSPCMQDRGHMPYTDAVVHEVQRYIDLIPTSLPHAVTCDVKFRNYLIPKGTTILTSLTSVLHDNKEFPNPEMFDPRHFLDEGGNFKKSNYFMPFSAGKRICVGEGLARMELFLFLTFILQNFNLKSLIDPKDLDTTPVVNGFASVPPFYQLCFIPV
Sequence of Phosphatidylinositol 4,5-bisphosphate 3-kinase catalytic subunit alpha isoform (P42336 whole entry H1047R, canonical isoform): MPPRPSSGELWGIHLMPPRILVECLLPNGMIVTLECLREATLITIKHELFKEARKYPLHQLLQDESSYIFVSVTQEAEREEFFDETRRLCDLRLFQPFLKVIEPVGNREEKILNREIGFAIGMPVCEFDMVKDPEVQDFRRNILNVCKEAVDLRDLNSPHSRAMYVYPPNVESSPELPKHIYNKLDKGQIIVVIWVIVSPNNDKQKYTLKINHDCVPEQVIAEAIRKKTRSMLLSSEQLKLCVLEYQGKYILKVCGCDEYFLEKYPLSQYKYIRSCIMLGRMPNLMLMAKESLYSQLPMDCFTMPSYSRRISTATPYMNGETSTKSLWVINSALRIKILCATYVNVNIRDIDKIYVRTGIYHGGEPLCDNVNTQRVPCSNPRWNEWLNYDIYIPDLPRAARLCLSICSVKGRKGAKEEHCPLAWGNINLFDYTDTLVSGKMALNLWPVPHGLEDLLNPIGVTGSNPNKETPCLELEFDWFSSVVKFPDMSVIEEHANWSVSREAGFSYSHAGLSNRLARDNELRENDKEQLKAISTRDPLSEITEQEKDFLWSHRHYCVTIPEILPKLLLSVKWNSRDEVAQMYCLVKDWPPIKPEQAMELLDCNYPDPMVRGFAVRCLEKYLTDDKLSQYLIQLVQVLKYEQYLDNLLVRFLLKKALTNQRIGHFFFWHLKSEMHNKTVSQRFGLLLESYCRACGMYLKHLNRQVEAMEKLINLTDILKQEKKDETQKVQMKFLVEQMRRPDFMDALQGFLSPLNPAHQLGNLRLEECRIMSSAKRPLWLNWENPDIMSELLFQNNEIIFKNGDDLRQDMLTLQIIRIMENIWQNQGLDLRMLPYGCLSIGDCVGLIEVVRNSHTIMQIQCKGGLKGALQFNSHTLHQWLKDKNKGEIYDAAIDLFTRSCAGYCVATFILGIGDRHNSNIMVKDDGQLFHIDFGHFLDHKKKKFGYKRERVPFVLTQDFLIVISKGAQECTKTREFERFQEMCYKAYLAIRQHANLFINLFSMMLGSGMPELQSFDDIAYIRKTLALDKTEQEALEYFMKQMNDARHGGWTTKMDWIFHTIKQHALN
Sequence of NaV1.5 (Q14524 whole entry): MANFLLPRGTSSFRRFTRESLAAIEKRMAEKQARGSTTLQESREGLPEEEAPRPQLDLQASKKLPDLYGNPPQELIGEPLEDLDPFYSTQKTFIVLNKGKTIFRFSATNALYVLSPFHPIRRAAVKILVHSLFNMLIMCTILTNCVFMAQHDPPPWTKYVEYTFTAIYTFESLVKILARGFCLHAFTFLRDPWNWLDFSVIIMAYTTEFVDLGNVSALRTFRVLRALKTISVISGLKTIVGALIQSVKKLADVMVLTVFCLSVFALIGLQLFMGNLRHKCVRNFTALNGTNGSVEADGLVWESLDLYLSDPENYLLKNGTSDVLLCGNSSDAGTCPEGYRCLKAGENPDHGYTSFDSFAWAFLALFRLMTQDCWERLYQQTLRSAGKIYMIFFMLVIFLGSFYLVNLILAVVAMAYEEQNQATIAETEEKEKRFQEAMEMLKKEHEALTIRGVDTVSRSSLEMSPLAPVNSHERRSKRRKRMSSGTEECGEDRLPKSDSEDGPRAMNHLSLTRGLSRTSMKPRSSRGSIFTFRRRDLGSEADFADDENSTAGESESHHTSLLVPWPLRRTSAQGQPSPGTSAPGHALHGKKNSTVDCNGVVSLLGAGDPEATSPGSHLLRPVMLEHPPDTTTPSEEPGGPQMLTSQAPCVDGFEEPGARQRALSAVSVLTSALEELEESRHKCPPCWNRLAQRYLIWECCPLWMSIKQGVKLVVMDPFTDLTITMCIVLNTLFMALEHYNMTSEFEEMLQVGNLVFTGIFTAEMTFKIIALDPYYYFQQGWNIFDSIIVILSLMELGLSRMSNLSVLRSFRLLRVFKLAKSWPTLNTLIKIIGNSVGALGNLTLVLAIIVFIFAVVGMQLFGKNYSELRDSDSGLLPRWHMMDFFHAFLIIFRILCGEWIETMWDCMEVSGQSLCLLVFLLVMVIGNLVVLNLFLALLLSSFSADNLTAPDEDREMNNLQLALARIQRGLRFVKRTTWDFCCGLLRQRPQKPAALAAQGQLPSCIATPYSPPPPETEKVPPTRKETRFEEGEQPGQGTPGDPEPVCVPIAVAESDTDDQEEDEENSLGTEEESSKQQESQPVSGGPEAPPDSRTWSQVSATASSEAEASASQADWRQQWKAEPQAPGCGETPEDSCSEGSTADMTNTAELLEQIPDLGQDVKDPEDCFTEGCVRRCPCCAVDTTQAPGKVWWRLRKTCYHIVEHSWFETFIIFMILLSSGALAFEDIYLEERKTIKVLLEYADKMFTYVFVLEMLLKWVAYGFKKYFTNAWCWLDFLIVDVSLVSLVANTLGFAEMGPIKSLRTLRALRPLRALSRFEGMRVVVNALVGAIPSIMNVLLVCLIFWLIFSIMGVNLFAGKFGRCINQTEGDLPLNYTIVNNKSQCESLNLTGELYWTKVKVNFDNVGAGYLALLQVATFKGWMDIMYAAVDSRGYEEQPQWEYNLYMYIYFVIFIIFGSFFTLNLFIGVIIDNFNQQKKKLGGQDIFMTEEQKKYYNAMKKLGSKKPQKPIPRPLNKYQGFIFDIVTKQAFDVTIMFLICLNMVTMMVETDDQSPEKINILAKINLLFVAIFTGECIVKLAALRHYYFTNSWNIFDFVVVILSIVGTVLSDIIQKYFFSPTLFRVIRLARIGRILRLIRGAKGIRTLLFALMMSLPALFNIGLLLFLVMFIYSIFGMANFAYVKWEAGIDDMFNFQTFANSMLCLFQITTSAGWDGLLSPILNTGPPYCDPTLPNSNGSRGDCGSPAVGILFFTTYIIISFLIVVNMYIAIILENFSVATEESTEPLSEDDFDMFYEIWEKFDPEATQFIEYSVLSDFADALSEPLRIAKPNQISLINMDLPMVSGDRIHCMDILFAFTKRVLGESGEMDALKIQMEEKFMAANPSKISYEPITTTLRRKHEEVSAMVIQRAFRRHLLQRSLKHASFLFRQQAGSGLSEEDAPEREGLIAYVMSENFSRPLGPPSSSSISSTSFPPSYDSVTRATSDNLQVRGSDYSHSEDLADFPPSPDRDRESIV

C[C@H](Nc1ccc2c(c1)OCCn1cc(N3C(=O)OC[C@H]3C(F)F)nc1-2)C(N)=O [INAVOLISIB]
solubility thermodynamic [1]: 1600 µg/mL (≈ 3930 µM)
inhibition (Mus musculus): Active
inhibition at 10 µM (NaV1.5): < 20%
inhibition in vivo at 50 mg/kg (HCC1954 [2]): 149%
solubility thermodynamic [3]: 38 µg/mL (≈ 93.3 µM)
bioavailability [4]: 45%
inhibition at 10 µM (CaV1.2): < 20%
IC50 [5]: 56 nM
AUC at 8 h [6]: 2.5 µM·h
fraction unbound at 4 h, 5 µM [7]: 0.608
solubility thermodynamic [8]: 615 µg/mL (≈ 1510 µM)
inhibition in vivo at 25 mg/kg (HCC1954 [9]): 140%
fraction unbound at 4 h, 5 µM [10]: 0.589
Activity (HCC1954 [11]): Active
inhibition at 10 µM (hERG (KCNH2)): < 20%
EC50 (MCF7): 30 nM
logD [12]: 0.8
EC50 [13]: 19 nM
bioavailability [14]: 58%
IC50 (Cytochrome P450 2D6): > 10000 nM
clearance [15]: 86 mL/min/kg
fraction unbound at 4 h, 5 µM [16]: 0.261
IC50 (Cytochrome P450 1A2): > 10000 nM
clearance [17]: 37 mL/min/kg
IC50 (Cytochrome P450 2C19): > 10000 nM
IC90 [18]: 276 nM
